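In this assay, cells in 96-well plates receive the compound at five concentrations for 48 hours. Endpoints are linearly interpolated between the surrounding concentrations. GI50 marks 50% less growth.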 Active and inactive are the calls of the source. Rule as the data show it: active = GI50 up to about 1.1 µM and inactive = higher. A value given as a limit tells only on which side of the number the result lay.

What all share (assay): growth of human tumour cells (NCI), 48 h
The test system of assay [1] is M19-MEL.
Assay [2] deals with A498.
Assay [3] deals with OVCAR-3.
The subject of assay [4] is CAKI-1.
The test system of assay [5] is KM12.
Assay [6] concerns OVCAR-5.
Assay [7] deals with SNB-78.
The subject of assay [8] is IGROV-1.
Assay [9] relates to NCI-H23.
The subject of assay [10] is ACHN.
Assay [11] deals with TK-10.
For assay [12], the system named is SN12C.
Assay [13] deals with UACC-257.
In assay [14] the test system is Hs-578T.
For assay [15], the system named is NCI/ADR-RES.
In assay [16] the test system is LOX IMVI.
For assay [17], the system named is NCI-H522.
Assay [18] has as its system SNB-19.
Assay [19] relates to HCT-116.
The subject of assay [20] is KM-20L2.

For the molecule `O=C1c2ccccc2C(=O)c2c(O)c(NCCCNCCO)cc(O)c21`, the GI50 was 13.7 µM (inactive) in assay [1]; 14.8 µM (inactive) in assay [2]; 12.1 µM (inactive) in assay [3]; 10.2 µM (inactive) in [4]; 0.729 µM (active) in assay [5]; 11.3 µM (inactive) in [6]. The GI50 was 11.2 µM (inactive) in [7]; 12.4 µM (inactive) in [8]; 9.18 µM (inactive) in assay [9]; 3.82 µM (inactive) in assay [10]; 8.83 µM (inactive) in assay [11]; 10.5 µM (inactive) in assay [12].

`Cc1cc(O)c(-c2cc(O)c(C)cc2O)cc1O`: the GI50 in assay [2] is 21 µM (inactive); in [13], 7 µM (inactive); in assay [14] it was 25.9 µM (inactive); in assay [3], 2.14 µM (inactive); in [15] it was 26.4 µM (inactive); in [16], 5.66 µM (inactive). The GI50 in [4] was 6.07 µM (inactive); in [5], 12.6 µM (inactive); in assay [6], 16.6 µM (inactive); in assay [8], 11.5 µM (inactive); in assay [17], 4.04 µM (inactive); in [9], 10.5 µM (inactive). The GI50 in [18] is 18.9 µM (inactive); in assay [19], 5.55 µM (inactive); in assay [10] it was 3.94 µM (inactive); in [11] it was 5.93 µM (inactive); in [12] it was 6.25 µM (inactive).

For the molecule `CC(NS(=O)(=O)c1ccc([N+](=O)[O-])cc1)C(=O)O` (stereo not given), the GI50 in [20], in assay [2], in assay [13], in assay [3], in assay [16] and in assay [4] was > 100 µM (inactive) each time. Besides, the GI50 in assay [5], in [6], in assay [8], in assay [17], in assay [9] and in [18] was > 100 µM (inactive) throughout. The GI50 in assay [10], in [11] and in [12] was > 100 µM (inactive) each time.

For the molecule `COc1ncnc2c1cnn2Cc1cn(CCCCO)nn1`, the GI50 in assay [2], in assay [13], in [14], in assay [3], in assay [15] and in [16] was > 100 µM (inactive) throughout. The GI50 in [4], in [5], in [6], in [8], in assay [17] and in assay [9] was > 100 µM (inactive) in each case. Also, the GI50 in assay [18], in assay [19], in [10], in assay [11] and in [12] was > 100 µM (inactive) in each case.

For the molecule `CS(=O)(=O)OC1CN2CCC1CC2` (stereo not given), the GI50 in assay [2], in assay [13], in assay [14], in [3], in assay [15] and in assay [16] was > 100 µM (inactive) each time. For the same molecule, the GI50 in assay [4], in [5], in [6], in assay [8], in [17] and in assay [9] was > 100 µM (inactive) in each case. Besides, the GI50 in [18], in assay [19], in assay [10], in assay [11] and in assay [12] was > 100 µM (inactive) in each case.

For the molecule `COC(=O)CC1C(=O)OCc2c1cc1n(c2=O)Cc2c-1nc1ccccc1c2OC` (stereo not given), the GI50 in assay [1] is 69.7 µM (inactive); in [20], > 100 µM (inactive); in assay [2] it was > 100 µM (inactive); in [13], > 100 µM (inactive); in [16], 22.5 µM (inactive); in assay [4], 4.51 µM (inactive). Moreover, the GI50 in [6] was 58.9 µM (inactive); in assay [8] it was > 100 µM (inactive); in assay [17], 25.8 µM (inactive); in assay [9], 17.3 µM (inactive); in [18], 37 µM (inactive); in [19] it was 13.4 µM (inactive). Moreover, the results for the GI50 in [10], in assay [11] and in assay [12] were 23.6 µM (inactive), > 100 µM (inactive) and 41.4 µM (inactive), respectively.

Turning to `CCOC(=O)C1=C(C)N(NC(N)=O)C2(N)N(NC(N)=O)C(C)=C(C(=O)OCC)C12C#N` (stereo not given), the GI50 in assay [1], in [20], in assay [2], in assay [13], in assay [3] and in [16] was > 100 µM (inactive) each time. The GI50 in assay [4], in [5], in assay [6], in assay [8], in assay [17] and in assay [18] was > 100 µM (inactive) in each case. Also, the GI50 in assay [19], in [10] and in assay [12] was > 100 µM (inactive) each time.

Regarding `CCCCCC(=O)C(C)C1=Nc2nnc(CCCCCCCc3nnc4n3C(=O)C(C(C)C(=O)CCCCC)=N4)n2C1=O` (stereo not given), the GI50 in [1], in [20], in assay [13], in assay [3], in [16] and in assay [4] was > 100 µM (inactive) throughout. In addition, the GI50 in [5], in assay [6], in assay [8], in [17], in assay [9] and in [18] was > 100 µM (inactive) each time. Further, the GI50 in [19], in assay [10], in [11] and in assay [12] was > 100 µM (inactive) throughout.

Take `O=C1NC2C3CC(OCc4ccccc4)(OCc4ccccc4)C2OC3O1` (stereo not given): the GI50 in [1] is > 50 µM (inactive); in assay [2] it was > 50 µM (inactive); in assay [13], 24.8 µM (inactive); in [3], > 50 µM (inactive); in assay [16] it was > 50 µM (inactive); in [4] it was > 50 µM (inactive). Besides, the GI50 in [5] was > 50 µM (inactive); in assay [6] it was > 50 µM (inactive); in [7] it was < 0.005 µM (active); in [8], > 50 µM (inactive); in [9], > 50 µM (inactive); in [19] it was > 50 µM (inactive). Further, the GI50 in assay [12] was > 50 µM (inactive).

Turning to `COC1O[C@@H]2COC(C)(C)O[C@@H]2C(=O)N1Nc1ccc([N+](=O)[O-])cc1` (stereo not given in full), the GI50 is > 100 µM (inactive) in assay [1]; > 100 µM (inactive) in [20]; > 100 µM (inactive) in assay [2]; > 100 µM (inactive) in [13]; > 100 µM (inactive) in assay [3]; 31.9 µM (inactive) in [16]. The GI50 in assay [4], in assay [5], in assay [6], in assay [8], in [9] and in [18] was > 100 µM (inactive) each time. In addition, the GI50 in assay [19], in [10], in [11] and in assay [12] was > 100 µM (inactive) throughout.

In the case of `COc1ccc(C2=NC(CO)[C@H](c3ccccc3)O2)cc1OC` (stereo not given in full), the GI50 in assay [1], in [20], in [2], in assay [13], in [3] and in [16] was > 100 µM (inactive) each time. Moreover, the GI50 in assay [4], in [5], in assay [6], in [8], in assay [17] and in assay [18] was > 100 µM (inactive) each time. Moreover, the GI50 in [19], in assay [10] and in assay [12] was > 100 µM (inactive) each time.

Regarding `C[N+](C)(C)CCCCCc1c2nc(c(CCCCC[N+](C)(C)C)c3ccc([nH]3)c(CCCCC[N+](C)(C)C)c3nc(c(CCCCC[N+](C)(C)C)c4ccc1[nH]4)C=C3)C=C2`, the GI50 in [2] is > 100 µM (inactive); in assay [13], > 100 µM (inactive); in assay [14], 56 µM (inactive); in [3], > 100 µM (inactive); in assay [15], > 100 µM (inactive); in assay [16], > 100 µM (inactive). Besides, the GI50 in [4], in assay [5], in assay [6], in assay [8], in [17] and in [9] was > 100 µM (inactive) each time. The GI50 is > 100 µM (inactive) in assay [18]; > 100 µM (inactive) in [19]; > 100 µM (inactive) in [10]; 11.3 µM (inactive) in [11]; > 100 µM (inactive) in assay [12].

Source of the values: ChEMBL document CHEMBL1201862, “PubChem BioAssay data set” (2004).
